# Experiments:
# [1] = target: T1, Sigma intracellular receptor 2 (Rattus norvegicus, UniProt Q5U3Y7); assay: Displacement of [3H]-ditolylguanidine from sigma 2 receptor/TMEM97 in rat PC-12 cells assessed as inhibition constant in the presence of (+)-pentazocine by competition binding assay; assay type: cell-based
# T1 sequence (Q5U3Y7 whole entry): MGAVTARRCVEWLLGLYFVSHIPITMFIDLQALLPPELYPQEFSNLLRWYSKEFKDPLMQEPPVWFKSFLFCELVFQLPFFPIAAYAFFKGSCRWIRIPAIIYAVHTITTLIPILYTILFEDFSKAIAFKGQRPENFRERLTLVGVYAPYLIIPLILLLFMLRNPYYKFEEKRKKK
# [2] = target: Sigma non-opioid intracellular receptor 1 (Cavia porcellus, UniProt Q60492); assay: Displacement of [3H](+)-pentazocine from sigma 1 receptor in guinea pig brain assessed as inhibition constant by competition binding assay; assay type: tissue-based
# [3] = Selectivity ratio of Ki for displacement of [3H](+)-pentazocine from sigma 1 receptor in guinea pig brain to Ki for displacement of [3H]-ditolylguanidine from sigma 2 receptor/TMEM97 in rat PC-12 cells; assay type: cell-based
# [4] = target: T2, Sigma intracellular receptor 2 (Homo sapiens, UniProt Q5BJF2); assay: Displacement of [3H]-ditolylguanidine from human sigma 2 receptor/TMEM97 transfected in HEK293 cells assessed as inhibition constant in the presence of (+)-pentazocine by competition binding assay; assay type: cell-based
# [5] = target: T2, Sigma intracellular receptor 2; assay: Binding affinity to sigma 2 receptor/TMEM97 (unknown origin) assessed as inhibition constant
# [6] = target: T3, Sigma non-opioid intracellular receptor 1 (Homo sapiens, UniProt Q99720); assay: Binding affinity to sigma 1 receptor (unknown origin) assessed as inhibition constant
# [7] = target: T2, Sigma intracellular receptor 2; assay: Potency index, ratio of JVW-1601 Ki to test compound Ki for displacement of [3H]-ditolylguanidine from human sigma 2 receptor/TMEM97 transfected in HEK293 cells assessed as inhibition constant in the presence of (+)-pentazocine by competition binding assay; assay type: cell-based
# [8] = target: T3, Sigma non-opioid intracellular receptor 1; assay: Displacement of [3H](+)-pentazocine from human sigma 1 receptor transfected in HEK293 cells assessed as inhibition constant by competition binding assay; assay type: cell-based
# [9] = target: Muscarinic acetylcholine receptor M2 (Homo sapiens, UniProt P08172); assay: Binding affinity at human muscarinic M2 receptor assessed as inhibition constant
# [10] = target: Sodium-dependent serotonin transporter (Homo sapiens, UniProt P31645); assay: Binding affinity at human SERT assessed as inhibition constant
# [11] = target: Muscarinic acetylcholine receptor M4 (Homo sapiens, UniProt P08173); assay: Binding affinity at human muscarinic M4 receptor assessed as inhibition constant
# [12] = Binding affinity to human Ca2+ ion channel assessed as inhibition constant
# [13] = Half-life in mouse at 10 mg/kg, ip; assay type: ADME, organism-based; settings: in vivo
# [14] = target: Sodium-dependent noradrenaline transporter (Homo sapiens, UniProt P23975); assay: Binding affinity at human Norepinephrine transporter assessed as inhibition constant
# [15] = target: Alpha-2C adrenergic receptor (Homo sapiens, UniProt P18825); assay: Binding affinity to human alpha 2C adrenergic receptor assessed as inhibition constant
# [16] = Selectivity ratio of Ki for displacement of [3H]-ditolylguanidine from human sigma 2 receptor/TMEM97 transfected in HEK293 cells to Ki for displacement of [3H]-ditolylguanidine from sigma 2 receptor/TMEM97 in rat PC-12 cells; assay type: cell-based
# Mu-type opioid receptor = Mu-type opioid receptor (Homo sapiens, UniProt P35372); assay: Binding affinity at human MOR assessed as inhibition constant
# [17] = Ratio of drug concentration in mouse brain to plasma at 10 mg/kg, ip measured after 4 hrs; assay type: ADME, organism-based; settings: read-out: BPR
# [18] = target: Beta-1 adrenergic receptor (Homo sapiens, UniProt P08588); assay: Binding affinity to human beta 1 adrenergic receptor assessed as inhibition constant
# [19] = target: Muscarinic acetylcholine receptor M3 (Homo sapiens, UniProt P20309); assay: Binding affinity at human muscarinic M3 receptor assessed as inhibition constant
# [20] = target: Kappa-type opioid receptor (Homo sapiens, UniProt P41145); assay: Binding affinity at human KOR assessed as inhibition constant
# [21] = target: Delta-type opioid receptor (Homo sapiens, UniProt P41143); assay: Binding affinity at human DOR assessed as inhibition constant
# [22] = target: Alpha-1B adrenergic receptor (Homo sapiens, UniProt P35368); assay: Binding affinity to human alpha 1B adrenergic receptor assessed as inhibition constant
# [23] = target: Serotonin 3 (5-HT3) receptor; assay: Binding affinity to human 5HT3 receptor assessed as inhibition constant; assay type: protein-complex assay
# [24] = target: GABA-A receptor; anion channel; assay: Binding affinity at human GABA A receptor assessed as inhibition constant; assay type: protein-complex assay
# [25] = target: Muscarinic acetylcholine receptor M1 (Homo sapiens, UniProt P11229); assay: Binding affinity at human muscarinic M1 receptor assessed as inhibition constant
# [26] = Drug concentration in mouse brain at 10 mg/kg, ip measured after 4 hrs; assay type: ADME, organism-based; settings: read-out: Ct
# [27] = Ratio of unbound drug concentration in mouse brain to plasma at 10 mg/kg, ip measured after 4 hrs; assay type: ADME, organism-based; settings: read-out: K(p,uu,brain)
# D(2) dopamine receptor = D(2) dopamine receptor (Homo sapiens, UniProt P14416); assay: Binding affinity to human dopamine D2 receptor assessed as inhibition constant
# [28] = target: Beta-3 adrenergic receptor (Homo sapiens, UniProt P13945); assay: Binding affinity to human beta 3 adrenergic receptor assessed as inhibition constant
# [29] = target: Beta-2 adrenergic receptor (Homo sapiens, UniProt P07550); assay: Binding affinity to human beta 2 adrenergic receptor assessed as inhibition constant
# P-glycoprotein (MDR1) = assay: Efflux ratio of permeability in MDCK-MDR1 cells expressing P-glycoprotein; assay type: ADME, cell-based, Canis lupus familiaris; settings: dog
# [30] = Selectivity ratio of Ki for displacement of [3H](+)-pentazocine from sigma 1 receptor in guinea pig brain to Ki for displacement of [3H](+)-pentazocine from human sigma 1 receptor transfected in HEK293 cells; assay type: cell-based
# [31] = target: 5-hydroxytryptamine receptor 1E (Homo sapiens, UniProt P28566); assay: Binding affinity to human 5HT1E receptor assessed as inhibition constant
# Translocator protein = Translocator protein (Homo sapiens, UniProt P30536); assay: Binding affinity at human PBR assessed as inhibition constant
# Sequence of Sigma non-opioid intracellular receptor 1 (Cavia porcellus, UniProt Q60492) (Q60492 whole entry): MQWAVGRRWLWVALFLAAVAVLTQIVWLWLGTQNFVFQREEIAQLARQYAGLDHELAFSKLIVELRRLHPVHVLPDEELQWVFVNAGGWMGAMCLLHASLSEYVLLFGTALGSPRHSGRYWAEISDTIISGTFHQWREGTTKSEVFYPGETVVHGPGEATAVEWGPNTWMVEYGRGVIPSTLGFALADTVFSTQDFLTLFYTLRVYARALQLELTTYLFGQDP
# T2 sequence (Q5BJF2 whole entry): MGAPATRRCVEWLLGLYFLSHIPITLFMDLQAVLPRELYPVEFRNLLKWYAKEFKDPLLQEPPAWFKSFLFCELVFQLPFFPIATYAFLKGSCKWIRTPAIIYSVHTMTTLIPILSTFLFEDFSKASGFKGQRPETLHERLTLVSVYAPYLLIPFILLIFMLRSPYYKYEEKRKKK
# T3 sequence (Q99720 whole entry): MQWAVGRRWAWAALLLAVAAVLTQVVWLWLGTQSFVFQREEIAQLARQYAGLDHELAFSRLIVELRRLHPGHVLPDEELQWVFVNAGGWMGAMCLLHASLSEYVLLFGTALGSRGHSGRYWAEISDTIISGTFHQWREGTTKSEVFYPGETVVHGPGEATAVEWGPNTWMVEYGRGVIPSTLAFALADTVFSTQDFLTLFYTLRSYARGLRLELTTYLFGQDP
# Sequence of Alpha-2C adrenergic receptor (P18825 whole entry): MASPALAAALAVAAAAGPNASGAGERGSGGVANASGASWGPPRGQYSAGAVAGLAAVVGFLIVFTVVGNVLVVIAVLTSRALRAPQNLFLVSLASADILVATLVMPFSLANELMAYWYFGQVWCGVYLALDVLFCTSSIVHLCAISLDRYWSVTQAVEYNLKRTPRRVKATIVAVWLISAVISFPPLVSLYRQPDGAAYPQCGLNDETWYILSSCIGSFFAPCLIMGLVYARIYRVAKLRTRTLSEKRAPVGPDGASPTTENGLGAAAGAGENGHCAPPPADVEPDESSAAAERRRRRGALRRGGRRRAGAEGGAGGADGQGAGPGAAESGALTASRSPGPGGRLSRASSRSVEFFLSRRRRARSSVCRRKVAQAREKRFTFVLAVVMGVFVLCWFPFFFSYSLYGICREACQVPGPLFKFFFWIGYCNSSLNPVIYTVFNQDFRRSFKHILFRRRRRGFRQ
# Sequence of Muscarinic acetylcholine receptor M3 (P20309 whole entry): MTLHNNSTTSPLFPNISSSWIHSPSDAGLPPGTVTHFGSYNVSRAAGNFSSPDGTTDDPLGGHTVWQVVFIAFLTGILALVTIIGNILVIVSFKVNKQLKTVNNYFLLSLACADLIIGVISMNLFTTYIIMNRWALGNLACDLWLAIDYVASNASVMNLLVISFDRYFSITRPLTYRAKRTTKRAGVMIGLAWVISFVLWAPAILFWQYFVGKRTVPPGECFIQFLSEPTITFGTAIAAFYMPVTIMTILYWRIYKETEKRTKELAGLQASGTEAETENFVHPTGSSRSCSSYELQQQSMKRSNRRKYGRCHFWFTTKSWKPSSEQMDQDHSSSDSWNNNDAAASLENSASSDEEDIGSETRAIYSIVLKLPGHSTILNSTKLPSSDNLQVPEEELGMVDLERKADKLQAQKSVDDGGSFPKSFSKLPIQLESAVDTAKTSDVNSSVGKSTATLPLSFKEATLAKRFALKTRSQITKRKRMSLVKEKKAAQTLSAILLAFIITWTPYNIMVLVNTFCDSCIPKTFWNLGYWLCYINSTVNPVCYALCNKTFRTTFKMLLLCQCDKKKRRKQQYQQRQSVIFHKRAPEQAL
# Sequence of Alpha-1B adrenergic receptor (P35368 whole entry): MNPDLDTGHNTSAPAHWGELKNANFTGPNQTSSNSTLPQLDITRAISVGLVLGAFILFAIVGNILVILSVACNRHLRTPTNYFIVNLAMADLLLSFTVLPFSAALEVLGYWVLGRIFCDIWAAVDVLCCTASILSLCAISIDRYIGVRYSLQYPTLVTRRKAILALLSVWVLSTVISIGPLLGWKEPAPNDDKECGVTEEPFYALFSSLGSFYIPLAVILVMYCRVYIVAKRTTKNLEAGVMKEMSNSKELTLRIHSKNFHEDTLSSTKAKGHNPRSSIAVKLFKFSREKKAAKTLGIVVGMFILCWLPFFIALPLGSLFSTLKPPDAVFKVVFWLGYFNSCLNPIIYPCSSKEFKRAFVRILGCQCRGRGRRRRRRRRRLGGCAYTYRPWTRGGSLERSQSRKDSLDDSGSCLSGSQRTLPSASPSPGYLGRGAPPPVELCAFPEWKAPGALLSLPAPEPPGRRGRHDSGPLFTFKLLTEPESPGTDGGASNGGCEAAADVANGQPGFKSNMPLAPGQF
# Sequence of Muscarinic acetylcholine receptor M4 (P08173 whole entry): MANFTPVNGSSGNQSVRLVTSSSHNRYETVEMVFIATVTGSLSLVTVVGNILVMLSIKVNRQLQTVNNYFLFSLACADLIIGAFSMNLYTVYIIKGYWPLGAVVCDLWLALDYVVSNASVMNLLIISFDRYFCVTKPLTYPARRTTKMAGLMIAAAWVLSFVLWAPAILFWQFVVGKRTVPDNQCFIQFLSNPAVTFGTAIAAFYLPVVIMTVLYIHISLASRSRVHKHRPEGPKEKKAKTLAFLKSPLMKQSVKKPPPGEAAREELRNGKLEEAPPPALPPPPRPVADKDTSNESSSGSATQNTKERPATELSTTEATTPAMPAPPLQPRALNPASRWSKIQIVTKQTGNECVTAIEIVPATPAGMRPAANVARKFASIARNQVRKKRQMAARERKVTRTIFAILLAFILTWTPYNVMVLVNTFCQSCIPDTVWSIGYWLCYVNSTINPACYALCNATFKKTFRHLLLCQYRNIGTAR
# Sequence of Delta-type opioid receptor (P41143 whole entry): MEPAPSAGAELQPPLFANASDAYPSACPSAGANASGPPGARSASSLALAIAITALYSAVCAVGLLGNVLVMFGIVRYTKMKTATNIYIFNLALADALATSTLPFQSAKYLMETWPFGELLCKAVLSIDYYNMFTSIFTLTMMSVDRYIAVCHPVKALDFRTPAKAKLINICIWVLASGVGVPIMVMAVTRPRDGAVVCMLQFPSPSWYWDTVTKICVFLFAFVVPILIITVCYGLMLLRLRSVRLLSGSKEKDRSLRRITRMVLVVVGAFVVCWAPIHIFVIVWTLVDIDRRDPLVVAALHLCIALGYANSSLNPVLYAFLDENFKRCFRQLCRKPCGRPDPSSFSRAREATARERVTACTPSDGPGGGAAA
# Sequence of Muscarinic acetylcholine receptor M1 (P11229 whole entry): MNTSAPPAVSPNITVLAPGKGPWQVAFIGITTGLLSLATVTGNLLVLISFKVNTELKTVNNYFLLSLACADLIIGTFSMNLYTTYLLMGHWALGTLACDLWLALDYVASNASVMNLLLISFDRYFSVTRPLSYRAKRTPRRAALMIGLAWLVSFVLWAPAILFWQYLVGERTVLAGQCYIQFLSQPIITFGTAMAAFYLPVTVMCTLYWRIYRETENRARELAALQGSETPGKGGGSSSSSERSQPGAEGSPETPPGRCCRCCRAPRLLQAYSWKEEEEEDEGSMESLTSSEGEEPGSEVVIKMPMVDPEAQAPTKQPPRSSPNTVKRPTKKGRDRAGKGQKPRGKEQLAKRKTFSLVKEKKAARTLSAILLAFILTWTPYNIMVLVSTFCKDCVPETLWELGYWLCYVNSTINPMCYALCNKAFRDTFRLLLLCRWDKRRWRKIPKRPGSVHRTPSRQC
# Sequence of Sodium-dependent noradrenaline transporter (P23975 whole entry): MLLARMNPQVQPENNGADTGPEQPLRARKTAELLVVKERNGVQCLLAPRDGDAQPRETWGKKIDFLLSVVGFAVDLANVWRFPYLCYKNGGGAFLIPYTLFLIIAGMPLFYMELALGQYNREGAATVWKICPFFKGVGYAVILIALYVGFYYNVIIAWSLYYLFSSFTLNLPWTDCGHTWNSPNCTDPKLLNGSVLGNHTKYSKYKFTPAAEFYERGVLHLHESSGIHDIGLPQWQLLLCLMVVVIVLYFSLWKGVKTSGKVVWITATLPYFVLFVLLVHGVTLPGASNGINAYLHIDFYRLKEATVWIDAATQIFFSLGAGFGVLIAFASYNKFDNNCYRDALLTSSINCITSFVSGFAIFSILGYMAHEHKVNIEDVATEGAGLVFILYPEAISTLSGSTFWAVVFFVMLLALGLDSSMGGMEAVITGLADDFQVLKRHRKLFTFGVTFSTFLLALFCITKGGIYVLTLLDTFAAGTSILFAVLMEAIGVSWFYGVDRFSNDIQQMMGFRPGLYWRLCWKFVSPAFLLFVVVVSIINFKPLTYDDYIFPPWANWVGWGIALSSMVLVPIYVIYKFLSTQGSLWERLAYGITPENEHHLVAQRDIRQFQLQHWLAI
# Sequence of Beta-2 adrenergic receptor (P07550 whole entry): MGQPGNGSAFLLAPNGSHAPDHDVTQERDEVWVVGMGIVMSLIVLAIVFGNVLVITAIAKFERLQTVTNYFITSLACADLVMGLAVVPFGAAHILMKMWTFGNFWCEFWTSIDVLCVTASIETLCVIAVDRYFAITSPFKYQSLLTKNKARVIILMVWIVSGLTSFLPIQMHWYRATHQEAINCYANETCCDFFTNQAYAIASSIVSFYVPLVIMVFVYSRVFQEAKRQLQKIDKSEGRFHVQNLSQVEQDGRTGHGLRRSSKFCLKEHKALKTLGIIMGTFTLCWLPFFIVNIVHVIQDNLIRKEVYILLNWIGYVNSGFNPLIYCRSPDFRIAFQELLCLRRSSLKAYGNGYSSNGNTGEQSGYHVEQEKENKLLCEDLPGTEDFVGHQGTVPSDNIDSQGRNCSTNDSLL
# Sequence of 5-hydroxytryptamine receptor 1E (P28566 whole entry): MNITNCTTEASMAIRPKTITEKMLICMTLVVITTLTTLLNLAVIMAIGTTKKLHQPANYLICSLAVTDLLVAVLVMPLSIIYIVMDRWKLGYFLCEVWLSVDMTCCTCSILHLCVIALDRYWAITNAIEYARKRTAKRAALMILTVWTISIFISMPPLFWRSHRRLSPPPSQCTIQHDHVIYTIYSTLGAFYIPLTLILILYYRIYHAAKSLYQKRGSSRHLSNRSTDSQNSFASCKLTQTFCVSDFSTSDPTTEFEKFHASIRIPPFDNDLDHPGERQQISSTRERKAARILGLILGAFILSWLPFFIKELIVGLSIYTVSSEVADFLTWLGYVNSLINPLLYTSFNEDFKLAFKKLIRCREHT
smiles,measurement,setting,value
CCOC(=O)CN1CCN(c2ccc3c(c2)C(N(C)C(=O)OCc2ccccc2)CCC3)CC1 (configuration not stated),Ki,[1],894 nM
same,Ki,[2],> 10000 nM
CN(C(=O)OCc1ccccc1)C1CCCc2ccc(N3CCN(C4CCCCC4)CC3)cc21 (configuration not stated),Ki,[1],2.1 nM
same,Ki,[2],16 nM
same,Ratio Ki,[3],7.6
CCCN1CCN(c2ccc3c(c2)C(N(CCC(=O)OCC)C(=O)OCc2ccccc2)CCC3)CC1 (configuration not stated),Ki,[4],35 nM
same,Ki,[2],187 nM
CCCN1CCN(c2ccc3c(c2)C(OCc2ccccc2)CCC3)CC1 (configuration not stated),Ki,[1],50 nM
same,Ki,[2],104 nM
CCCN1CCN(c2ccc3c(c2)C(N(CCC)C(=O)OCc2ccccc2)CCC3)CC1 (configuration not stated),Ki,[1],9.4 nM
same,Ki,[2],199 nM
Clc1ccc2c(c1)C1CC2CCCN1CCc1ccccc1 (configuration not stated),Ki,[5],23 nM
same,Ki,[6],248 nM
CCCN1CCN(c2ccc3c(c2)CCCC3N(C)C(=O)OCc2ccccc2)CC1 (configuration not stated),Ki,[1],13 nM
same,Ki,[2],40 nM
CCCN1CCN(c2cccc3c2CCCC3N(C)C(=O)OCc2ccccc2)CC1 (configuration not stated),Ki,[1],26 nM
same,Ki,[2],12 nM
CCCN1CCN(c2ccc3c(c2)C(OC(=O)CCc2ccccc2)CCC3)CC1 (configuration not stated),Ki,[1],25 nM
same,Ki,[2],33 nM
CCCN1CCN(c2ccc3c(c2)C(N(C)C(=O)CCc2ccccc2)CCC3)CC1 (configuration not stated),Ki,[4],17 nM
same,Ki,[2],973 nM
same,Ratio Ki,[7],2
CCN(CC)C(=O)CCN1CCN(c2ccc3c(c2)C(N(C)C(=O)OCc2ccccc2)CCC3)CC1 (configuration not stated),Ki,[1],7.2 nM
same,Ki,[2],2100 nM
CCCN1CCN(c2ccc3c(c2)C(N(CCCCCCCCCCCN)C(=O)OCc2ccccc2)CCC3)CC1 (configuration not stated),Ki,[1],16.6 nM
CCCN1CCN(c2ccc3c(c2)C(N(C)C(=O)Cc2ccccc2)CCC3)CC1 (configuration not stated),Ki,[4],53 nM
same,Ki,[8],188 nM
CCCN1CCN(c2ccc3c(c2)C(N(CCCO)C(=O)OCc2ccccc2)CCC3)CC1 (configuration not stated),Ki,[4],135 nM
same,Ki,[2],254 nM
CN(C(=O)OCc1ccccc1)C1CCCc2ccc(N3CCN(C4CCC4)CC3)cc21 (configuration not stated),Ki,[1],12 nM
same,Ki,[2],266 nM
same,Ratio Ki,[3],41
CCOC(=O)CCN1CCN(c2ccc3c(c2)C(N(C)C(=O)OCc2ccccc2)CCC3)CC1 (configuration not stated),Ki,[1],4.5 nM
same,Ki,[2],1650 nM
CCCN1CCN(c2ccc3c(c2)C(N(C)C(=O)/C=C/c2ccccc2)CCC3)CC1 (configuration not stated),Ki,[4],9.6 nM
same,Ratio Ki,[7],3.4
same,Ki,[8],196 nM
CN(C(=O)OCc1ccccc1)C1CCCc2ccc(N3CCN(CCCO)CC3)cc21 (configuration not stated),Ki,[1],21 nM
same,Ki,[2],474 nM
CC(C)N1CCN(c2ccc3c(c2)C(N(C)C(=O)OCc2ccccc2)CCC3)CC1 (configuration not stated),Ki,[1],8.3 nM
same,Ki,[2],223 nM
CN(C(=O)OCc1ccccc1)C1CCCc2ccc(N3CCN(C4CCCC4)CC3)cc21 (configuration not stated),Ki,[1],2.1 nM
same,Ki,[2],86 nM
CCCN1CCN(c2ccc3c(c2)C(N(C)C(=O)OCc2ccccc2)CCC3)CC1 (configuration not stated),Ki,[9],> 10000 nM
same,Ki,[10],> 10000 nM
same,Ki,[11],> 10000 nM
same,Ki,[1],5.5 nM
same,Ki,[12],> 10000 nM
same,half-life,[13],1.2 h
same,Ki,[14],> 10000 nM
same,Ki,[15],> 10000 nM
same,Ratio Ki,[16],6
same,Ki,Mu-type opioid receptor,> 10000 nM
same,Kp at 4 h,[17],2.8
same,Ki,[18],> 10000 nM
same,Ki,[19],> 10000 nM
same,Ki,[20],> 10000 nM
same,Ki,[21],> 10000 nM
same,Ki,[4],33 nM
same,Ki,[2],200 nM
same,Ki,[22],> 10000 nM
same,Ki,[23],> 10000 nM
same,Ki,[24],> 10000 nM
same,Ki,[25],> 10000 nM
same,concentration at 4 h,[26],104 nM
same,Kp uu at 4 h,[27],0.36
same,Ki,[8],82 nM
same,Ki,D(2) dopamine receptor,> 10000 nM
same,Ki,[28],> 10000 nM
same,Ki,[29],> 10000 nM
same,efflux ratio,P-glycoprotein (MDR1),1
same,Ratio Ki,[30],2.5
same,Ratio Ki,[3],36
same,Ki,[31],> 10000 nM
same,Ki,Translocator protein,8330 nM
CCN1CCN(c2ccc3c(c2)C(N(C)C(=O)OCc2ccccc2)CCC3)CC1 (configuration not stated),Ki,[1],35 nM
same,Ki,[2],887 nM
CCCN1CCN(c2ccc3c(c2)C(OCCCc2ccccc2)CCC3)CC1 (configuration not stated),Ki,[4],17 nM
same,Ki,[2],21 nM
CCCN1CCN(c2ccc3c(c2)C(N(CC)C(=O)OCc2ccccc2)CCC3)CC1 (configuration not stated),Ki,[1],4.6 nM
same,Ki,[2],321 nM
CN1CCN(c2ccc3c(c2)C(N(C)C(=O)OCc2ccccc2)CCC3)CC1 (configuration not stated),Ki,[1],284 nM
same,Ki,[2],2940 nM
COCCN1CCN(c2ccc3c(c2)C(N(C)C(=O)OCc2ccccc2)CCC3)CC1 (configuration not stated),Ki,[4],128 nM
same,Ki,[2],1050 nM
CCCN1CCN(c2ccc3c(c2)C(OC/C=C/c2ccccc2)CCC3)CC1 (configuration not stated),Ki,[4],15 nM
same,Ki,[2],140 nM

# Reference: ChEMBL document CHEMBL5338720, “Targeting σ2R/TMEM97 with novel aminotetralins” (Eur J Med Chem, 2022)
